Test results published in US5852016A, “Quinoxaline derivatives useful in therapy” (Pfizer Inc., priority 1994, dated 1998).

Biological target: T1, glycine site of the NMDA receptor (Rattus norvegicus, UniProt P35439)
T1 construct: displace a selective glycine site radioligand from rat brain membranes; from tissue; host or cells: rat brain membranes
Assay: Binding affinity for the glycine site of the NMDA receptor (test (a))
Conditions: displacement of selective glycine site radioligand ([3H]-L-689,560) from rat brain membranes
Method: (a) Binding affinity for the glycine site of the NMDA receptor
This may be measured by testing a compound's ability to displace a selective glycine site radioligand from rat brain membranes as described in Brit J Pharm (1991), 104, 74. In a variation of this method, thoroughly washed membrane protein is incubated with [^3 H]-L-689,560 for 90 minutes using tris-acetate buffer (pH 7.4). Displacement of the radioligand, using a range of test compound concentrations, is used to derive IC50 (50% inhibitory concentration) values.

IC50 [nM]	Structure (SMILES)
< 50	CN(c1c(Cl)c(Cl)cc2[nH]c(=O)c(=O)[nH]c12)S(C)(=O)=O [Example 8]
< 50	CCS(=O)(=O)Nc1c(Cl)c(Cl)cc2[nH]c(=O)c(=O)[nH]c12 [Example 1, N-(1,4-Dihydro-6,7-dichloro-2,3-dioxoguinoxalin-5-yl)ethanesulphonamide]
< 50	CS(=O)(=O)N(CC(=O)O)c1c(Cl)c(Cl)cc2[nH]c(=O)c(=O)[nH]c12 (racemic) [Example 70, (RS)-N-(Carboxymethyl)-N-(1,4-dihydro-6,7-dichloro-2,3-dioxoquinoxaline-5-yl)methanesulphonamide]
< 50	Cn1c(CN(c2c(Cl)c(Cl)cc3[nH]c(=O)c(=O)[nH]c23)S(C)(=O)=O)nc2ccccc21 [Example 56]
< 50	CCc1c(Cl)cc2[nH]c(=O)c(=O)[nH]c2c1N(CCO)S(C)(=O)=O [Example 40]
< 50	CS(=O)(=O)N(CCCO)c1c(Cl)c(Cl)cc2[nH]c(=O)c(=O)[nH]c12 [Example 29]
< 50	CS(=O)(=O)N(CCO)c1c(Cl)c(Cl)cc2[nH]c(=O)c(=O)[nH]c12 (racemic) [Example 17, (RS)-N-(f1,4-Dihydro-6,7-dichloro-2,3-dioxoquinoxaline-5-yl)-N-(2-hydroxyethyl)methanesulphonamide]
